Data taken from the NIST ThermoML archive (doi:10.1021/je200721d).

Assay: xn = mol fraction of the nth substance listed
Conditions: Liquid, Vibrating tube method

CCCCCCCC [octane] + CCCCCC
Conditions | mass density [kg/m3]
333.01 K, 7000 kPa, x2 = 0.9308 | 636.74
333.01 K, 8000 kPa, x2 = 0.9308 | 638.01
333.01 K, 9000 kPa, x2 = 0.9308 | 639.26
333.01 K, 10000 kPa, x2 = 0.9308 | 640.48
333.01 K, 11000 kPa, x2 = 0.9308 | 641.7
333.01 K, 12000 kPa, x2 = 0.9308 | 642.89
333.01 K, 13000 kPa, x2 = 0.9308 | 644.06
333.01 K, 14000 kPa, x2 = 0.9308 | 645.22
333.01 K, 15000 kPa, x2 = 0.9308 | 646.35
333.01 K, 16000 kPa, x2 = 0.9308 | 647.46
333.01 K, 17000 kPa, x2 = 0.9308 | 648.54
333.01 K, 18000 kPa, x2 = 0.9308 | 649.61
333.01 K, 19000 kPa, x2 = 0.9308 | 650.63
333.01 K, 20000 kPa, x2 = 0.9308 | 651.64
333.01 K, 21000 kPa, x2 = 0.9308 | 652.62
333.01 K, 22000 kPa, x2 = 0.9308 | 653.55
333.01 K, 23000 kPa, x2 = 0.9308 | 654.5
333.01 K, 24000 kPa, x2 = 0.9308 | 655.39
333.01 K, 25000 kPa, x2 = 0.9308 | 656.28
333.02 K, 1000 kPa, x2 = 0.1654 | 665.79
333.02 K, 1000 kPa, x2 = 0.7995 | 637.16
333.02 K, 2000 kPa, x2 = 0.1654 | 666.85
333.02 K, 2000 kPa, x2 = 0.7995 | 638.39
333.02 K, 3000 kPa, x2 = 0.1654 | 667.91
333.02 K, 3000 kPa, x2 = 0.7995 | 639.63
333.02 K, 4000 kPa, x2 = 0.1654 | 668.97
333.02 K, 4000 kPa, x2 = 0.7995 | 640.91
333.02 K, 5000 kPa, x2 = 0.1654 | 670.04
333.02 K, 5000 kPa, x2 = 0.7995 | 642.14
333.02 K, 6000 kPa, x2 = 0.1654 | 671.11
333.02 K, 6000 kPa, x2 = 0.7995 | 643.37
333.02 K, 7000 kPa, x2 = 0.1654 | 672.17
333.02 K, 7000 kPa, x2 = 0.7995 | 644.6
333.02 K, 8000 kPa, x2 = 0.1654 | 673.21
333.02 K, 8000 kPa, x2 = 0.7995 | 645.81
333.02 K, 9000 kPa, x2 = 0.1654 | 674.28
333.02 K, 9000 kPa, x2 = 0.7995 | 647.01
333.02 K, 10000 kPa, x2 = 0.1654 | 675.32
333.02 K, 10000 kPa, x2 = 0.7995 | 648.19
333.02 K, 11000 kPa, x2 = 0.1654 | 676.36
333.02 K, 11000 kPa, x2 = 0.7995 | 649.36
333.02 K, 12000 kPa, x2 = 0.1654 | 677.38
333.02 K, 12000 kPa, x2 = 0.7995 | 650.5
333.02 K, 13000 kPa, x2 = 0.1654 | 678.38
333.02 K, 13000 kPa, x2 = 0.7995 | 651.63
333.02 K, 14000 kPa, x2 = 0.1654 | 679.38
333.02 K, 14000 kPa, x2 = 0.7995 | 652.74
333.02 K, 15000 kPa, x2 = 0.1654 | 680.34
333.02 K, 15000 kPa, x2 = 0.7995 | 653.84
333.02 K, 16000 kPa, x2 = 0.1654 | 681.29
333.02 K, 16000 kPa, x2 = 0.7995 | 654.91
333.02 K, 17000 kPa, x2 = 0.1654 | 682.26
333.02 K, 17000 kPa, x2 = 0.7995 | 655.95
333.02 K, 18000 kPa, x2 = 0.1654 | 683.15
333.02 K, 18000 kPa, x2 = 0.7995 | 656.97
333.02 K, 19000 kPa, x2 = 0.1654 | 684.04
333.02 K, 19000 kPa, x2 = 0.7995 | 657.98
333.02 K, 20000 kPa, x2 = 0.1654 | 684.93
333.02 K, 20000 kPa, x2 = 0.7995 | 658.95
333.02 K, 21000 kPa, x2 = 0.1654 | 685.79
333.02 K, 21000 kPa, x2 = 0.7995 | 659.91
333.02 K, 22000 kPa, x2 = 0.1654 | 686.62
333.02 K, 22000 kPa, x2 = 0.7995 | 660.83
333.02 K, 23000 kPa, x2 = 0.1654 | 687.45
333.02 K, 23000 kPa, x2 = 0.7995 | 661.72
333.02 K, 24000 kPa, x2 = 0.1654 | 688.25
333.02 K, 24000 kPa, x2 = 0.7995 | 662.6
333.02 K, 25000 kPa, x2 = 0.1654 | 689.01
333.02 K, 25000 kPa, x2 = 0.7995 | 663.44
333.04 K, 1000 kPa, x2 = 0.2199 | 663.81
333.04 K, 2000 kPa, x2 = 0.2199 | 664.87
333.04 K, 3000 kPa, x2 = 0.2199 | 665.96
333.04 K, 4000 kPa, x2 = 0.2199 | 667.04
333.04 K, 5000 kPa, x2 = 0.2199 | 668.13
333.04 K, 6000 kPa, x2 = 0.2199 | 669.19
333.04 K, 7000 kPa, x2 = 0.2199 | 670.26
333.04 K, 8000 kPa, x2 = 0.2199 | 671.36
333.04 K, 9000 kPa, x2 = 0.2199 | 672.39
333.04 K, 10000 kPa, x2 = 0.2199 | 673.44
333.04 K, 11000 kPa, x2 = 0.2199 | 674.49
333.04 K, 12000 kPa, x2 = 0.2199 | 675.5
333.04 K, 13000 kPa, x2 = 0.2199 | 676.53
333.04 K, 14000 kPa, x2 = 0.2199 | 677.53
333.04 K, 15000 kPa, x2 = 0.2199 | 678.51
333.04 K, 16000 kPa, x2 = 0.2199 | 679.46
333.04 K, 17000 kPa, x2 = 0.2199 | 680.4
333.04 K, 18000 kPa, x2 = 0.2199 | 681.32
333.04 K, 19000 kPa, x2 = 0.2199 | 682.23
333.04 K, 20000 kPa, x2 = 0.2199 | 683.09
333.04 K, 21000 kPa, x2 = 0.2199 | 683.96
333.04 K, 22000 kPa, x2 = 0.2199 | 684.8
333.04 K, 23000 kPa, x2 = 0.2199 | 685.61
333.04 K, 24000 kPa, x2 = 0.2199 | 686.43
333.04 K, 25000 kPa, x2 = 0.2199 | 687.22
